Measurements reported in article PMC10057480, “Expanding the Library of 1,2,4-Oxadiazole Derivatives: Discovery of New Farnesoid X Receptor (FXR) Antagonists/Pregnane X Receptor (PXR) Agonists” (Molecules, 2023).
Several values for one entry are separate records, joined by “and”; a condition that tells them apart may be missing. Identical values can stand only once.

What was measured:
[1] = test system: FXR target genes (BSEP, OSTα, NTCP) in HepG2 cells; test: qPCR of FXR target genes in HepG2 cells; assay type: cell-based; conditions: 6-ECDCA 10 μM plus compound
Experimental: HepG2 and CaCo2 cell lines, obtained from ATCC, were routinely cultured in Eagle’s MEM and high-glucose DMEM, respectively, supplemented with 10% FBS, 1% glutamine, and penicillin/streptomycin. For in vitro experiments, HepG2 (2 × 106) cells were stimulated with 6-ECDCA at a concentration of 10 µM alone or in combination with compound 5 or 11, and CaCo2 cells were exposed to TNFα (100 ng/mL) alone or in combination with rifaximin, compound 5, or 11.
Total RNA was isolated from the HepG2 and CaCo2 cell lines using TRI reagent (Zymo Research) and Direct-zol™ RNA MicroPrep w/Zymo-Spin™ IIC Columns (Zymo Research, Irvine, CA, USA). After purification from genomic DNA using DNase I (Thermo Fisher Scientific, Waltham, MA, USA), 2 μg of RNA from each sample was reverse transcribed using Kit FastGene Scriptase Basic (Nippon Genetics, Mariaweilerstraße, Düren, Germany) in 20-μL of reaction volume, and 50 ng of cDNA was amplified in a 20-μL solution containing 200 nM of each primer and 10 μL of PowerUp™ SYBR™ Green Master Mix (Thermo Fisher Scientific, Waltham, MA, USA) using a Quantstudio 3 system (Applied Biosystems, Foster City, CA, USA). The relative mRNA expression was calculated according to the ΔCt method. The primer used were as follows (forward and reverse): hGapdh (for […]; rev […]), hBsep (for […]; rev […]), hOstα (for […]; rev […]), hNtcp (for […]; rev […]), hPxr (for GCAAGGGCTTTTTCAGGAG; rev GGGTCTTCCGGGTGATCT), hIl-8 (for […]; rev […]), hIl-1β (for […]; rev […]).

FXR = target: T1, FXR (Homo sapiens, UniProt Q96RI1); test: FXR luciferase reporter transactivation assay (antagonism) on HepG2 cells; assay type: cell-based; conditions: at least three experiments; for FXR Antagonism Eff (%): HepG2 transactivation, compounds at 50 μM, percent inhibition of transactivation set at 100%, mean ± SD; for IC50: transactivation assay, concentration-response, mean ± SEM
T1 construct: expressed in transfected cells; host or cells: HepG2
T1 sequence (Q96RI1 1-486): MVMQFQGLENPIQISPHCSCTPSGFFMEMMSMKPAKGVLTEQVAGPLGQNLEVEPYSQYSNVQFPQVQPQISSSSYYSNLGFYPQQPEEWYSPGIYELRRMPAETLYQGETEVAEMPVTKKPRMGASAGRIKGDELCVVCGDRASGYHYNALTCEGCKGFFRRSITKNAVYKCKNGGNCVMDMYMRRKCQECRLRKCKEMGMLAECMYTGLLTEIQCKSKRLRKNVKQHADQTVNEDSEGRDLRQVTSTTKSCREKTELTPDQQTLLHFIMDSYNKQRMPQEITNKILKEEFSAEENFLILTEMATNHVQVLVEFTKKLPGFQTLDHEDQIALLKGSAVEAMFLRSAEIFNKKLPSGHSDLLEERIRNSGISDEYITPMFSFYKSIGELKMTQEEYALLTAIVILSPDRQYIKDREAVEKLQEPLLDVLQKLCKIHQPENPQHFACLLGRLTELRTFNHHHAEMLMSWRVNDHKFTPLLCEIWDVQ
Experimental: The antagonistic activity on FXR was investigated using HepG2 cells transfected with 100 ng of pSG5-FXR and pSG5-RXR, 200 ng of the reporter vector p(hsp27)-TK-LUC containing the FXR response element, and 100 ng of the pGL4.70 vector encoding the human Renilla gene used as a transfection control. […] In another experimental setting, HepG2 cells were transfected using 100 ng of pSG5-PXR, 100 ng of pSG5-RXR, and 100 ng of pGL4.70, along with the reporter vector pGL3(henance)PXRE. At 24 h post-transfection, cells were stimulated with rifaximin 10 μM (as a positive control) or compounds 2–11 (10 μM). The specificity of compounds 5 and 11 versus FXR and PXR was tested using HepG2 cells transiently transfected with 200 ng of the reporter vector p(UAS)5XTKLuc, 100 ng of a vector containing the ligand binding domain of LXRα or LXRβand 100 ng of pGL4.70, a vector encoding the human Renilla gene. At 24 h post-transfection, cells were stimulated for 18 h with GW3965 (5 μM), compounds 5 and 11 (10 μM), and the combination of GW3965 plus 5 or 11 (50 μM). Cellular lysate was assayed for luciferase and Renilla activities after 18 h using the Dual-Luciferase Reporter assay system (E1980, Promega, Madison, WI, USA). The activity of luciferase was measured using the Glomax 20/20 luminometer (Promega, Madison, WI, USA) and normalized with Renilla activities.

SMILES | Effect on BSEP mRNA expression induced by 6-ECDCA [1] | Effect on OSTα mRNA expression induced by 6-ECDCA [1] | FXR Antagonism Eff (%) (FXR) | IC50 (FXR) | Effect on NTCP mRNA expression [1]
OCc1ccc(CN2CCC(c3nc(-c4ccc5ccccc5c4)no3)CC2)cc1 [Compound 11, 5-[1-(4-(Hydroxymethyl)benzyl)piperidin-4-yl]-3-(naphthalen-2-yl)-1,2,4-oxadiazole] | reversed the effect | only a trend | 72% and 72 ± 6% | 4.4 ± 0.4 µM | 
CCCCCN1CCC(c2nc(-c3ccc4ccccc4c3)no2)CC1 [Compound 5, 3-(Naphthalen-2-yl)-5-(1-pentylpiperidin-4-yl)-1,2,4-oxadiazole] | reversed the effect | only a trend | 66% and 66 ± 1% | 8.4 ± 2 µM | showed antagonistic activity
